# Data reported in article PMC11238352, “Combination of dual JAK/HDAC inhibitor with regorafenib synergistically reduces tumor growth, metastasis, and regorafenib-induced toxicity in colorectal cancer” (Journal of Experimental & Clinical Cancer Research : CR, 2024).
# Tests used:
# FGFR4 = target: T1, FGFR4 (Homo sapiens, UniProt P22455); test: PamStation PTK kinomic profiling; type: cell-based; settings: change from DMSO control
# T1 construct: cell lysates were prepared; endogenous in cells; host or cells: SW480 and RKO
# Protocol: (§1) SW480 and RKO cells were treated with vehicle (DMSO), JAK/HDACi, regorafenib, and their combination for 45 min, and cell lysates were prepared. Tyrosine kinase (PTK) activity (kinomic) profiling was performed using the PamStation®12 platform (PamGene, BV, The Netherlands). As per standard kinomic protocol as described previously. Whole-chip comparative analysis (BioNavigator Upkin PTK v8.0) was performed between groups generating Mean Kinase Statistics (direction of change).
# Fgr = target: T2, Fgr (Homo sapiens, UniProt P09769); test: PamStation PTK kinomic profiling; type: cell-based; settings: change from DMSO control
# T2 construct: we conducted kinome analysis on lysates of SW480 and RKO cells; endogenous in cells; host or cells: SW480 and RKO cells
# T2 sequence (P09769 whole entry): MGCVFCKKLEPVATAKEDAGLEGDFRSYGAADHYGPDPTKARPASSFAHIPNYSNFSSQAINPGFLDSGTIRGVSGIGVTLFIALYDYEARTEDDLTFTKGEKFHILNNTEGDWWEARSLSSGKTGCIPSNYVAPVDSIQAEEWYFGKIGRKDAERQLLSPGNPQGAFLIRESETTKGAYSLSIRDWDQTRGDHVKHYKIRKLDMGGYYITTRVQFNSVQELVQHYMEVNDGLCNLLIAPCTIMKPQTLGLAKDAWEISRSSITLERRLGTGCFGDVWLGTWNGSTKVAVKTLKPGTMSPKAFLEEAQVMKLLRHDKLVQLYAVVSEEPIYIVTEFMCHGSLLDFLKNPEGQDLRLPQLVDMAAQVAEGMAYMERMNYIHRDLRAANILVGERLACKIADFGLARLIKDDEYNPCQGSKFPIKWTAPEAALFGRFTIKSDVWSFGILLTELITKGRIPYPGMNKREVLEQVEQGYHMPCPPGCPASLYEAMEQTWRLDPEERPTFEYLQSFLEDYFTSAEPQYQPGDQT
# Protocol: as §1
# PDGFR[beta] = target: T3, PDGFR[beta] (Homo sapiens, UniProt P09619); test: PamStation PTK kinomic profiling; type: cell-based; settings: change from DMSO control
# T3 construct: cell lysates were prepared; endogenous in cells; host or cells: SW480 and RKO
# Protocol: as §1
# FLT1 = target: T4, FLT1 (Homo sapiens, UniProt P17948); test: PamStation PTK kinomic profiling; type: cell-based; settings: change from DMSO control
# T4 construct: endogenous in cells; host or cells: SW480 and RKO
# T4 sequence (P17948 27-1338): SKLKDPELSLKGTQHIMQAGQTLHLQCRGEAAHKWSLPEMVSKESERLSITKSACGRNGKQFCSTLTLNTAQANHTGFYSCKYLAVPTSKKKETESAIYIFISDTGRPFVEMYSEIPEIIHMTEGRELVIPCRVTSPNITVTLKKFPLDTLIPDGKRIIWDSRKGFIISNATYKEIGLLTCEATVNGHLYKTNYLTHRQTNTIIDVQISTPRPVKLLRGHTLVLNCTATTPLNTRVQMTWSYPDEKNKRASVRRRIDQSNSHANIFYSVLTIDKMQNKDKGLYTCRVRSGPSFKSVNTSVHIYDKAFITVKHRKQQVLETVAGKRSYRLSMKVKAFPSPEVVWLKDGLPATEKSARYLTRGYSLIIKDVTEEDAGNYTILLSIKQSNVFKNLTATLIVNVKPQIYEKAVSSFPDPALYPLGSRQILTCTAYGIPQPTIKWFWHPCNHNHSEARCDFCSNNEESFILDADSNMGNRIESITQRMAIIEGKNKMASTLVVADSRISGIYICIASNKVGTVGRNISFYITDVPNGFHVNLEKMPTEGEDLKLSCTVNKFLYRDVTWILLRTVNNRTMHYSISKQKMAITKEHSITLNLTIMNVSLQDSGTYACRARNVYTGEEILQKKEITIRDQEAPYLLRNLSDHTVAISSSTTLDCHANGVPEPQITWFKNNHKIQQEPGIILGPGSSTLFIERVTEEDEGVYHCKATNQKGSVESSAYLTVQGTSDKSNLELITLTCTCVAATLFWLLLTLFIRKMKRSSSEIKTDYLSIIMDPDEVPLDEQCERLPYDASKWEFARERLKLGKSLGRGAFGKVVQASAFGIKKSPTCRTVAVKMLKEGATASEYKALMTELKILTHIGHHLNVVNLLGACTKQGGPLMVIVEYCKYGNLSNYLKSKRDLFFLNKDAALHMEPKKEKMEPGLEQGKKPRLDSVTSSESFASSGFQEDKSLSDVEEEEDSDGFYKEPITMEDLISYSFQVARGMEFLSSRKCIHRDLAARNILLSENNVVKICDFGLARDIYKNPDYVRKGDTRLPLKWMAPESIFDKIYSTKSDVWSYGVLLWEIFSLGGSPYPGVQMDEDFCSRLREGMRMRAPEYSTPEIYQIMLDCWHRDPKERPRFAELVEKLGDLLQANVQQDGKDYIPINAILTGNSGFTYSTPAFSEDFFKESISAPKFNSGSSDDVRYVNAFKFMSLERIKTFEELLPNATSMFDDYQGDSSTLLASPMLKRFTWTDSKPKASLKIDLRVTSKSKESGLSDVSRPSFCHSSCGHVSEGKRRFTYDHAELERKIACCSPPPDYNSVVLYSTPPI
# Protocol: as §1
# JAK1~b = target: T5, JAK1~b (Homo sapiens, UniProt P23458); test: PamStation PTK kinomic profiling; type: cell-based; settings: change from DMSO control
# T5 construct: cell lysates were prepared; endogenous in cells; host or cells: SW480 and RKO
# Protocol: as §1
# EphA4 = target: T6, EphA4 (Homo sapiens, UniProt P54764); test: PamStation PTK kinomic profiling; type: cell-based; settings: change from DMSO control
# T6 construct: cell lysates were prepared; endogenous in cells; host or cells: SW480 and RKO
# T6 sequence (P54764 20-986): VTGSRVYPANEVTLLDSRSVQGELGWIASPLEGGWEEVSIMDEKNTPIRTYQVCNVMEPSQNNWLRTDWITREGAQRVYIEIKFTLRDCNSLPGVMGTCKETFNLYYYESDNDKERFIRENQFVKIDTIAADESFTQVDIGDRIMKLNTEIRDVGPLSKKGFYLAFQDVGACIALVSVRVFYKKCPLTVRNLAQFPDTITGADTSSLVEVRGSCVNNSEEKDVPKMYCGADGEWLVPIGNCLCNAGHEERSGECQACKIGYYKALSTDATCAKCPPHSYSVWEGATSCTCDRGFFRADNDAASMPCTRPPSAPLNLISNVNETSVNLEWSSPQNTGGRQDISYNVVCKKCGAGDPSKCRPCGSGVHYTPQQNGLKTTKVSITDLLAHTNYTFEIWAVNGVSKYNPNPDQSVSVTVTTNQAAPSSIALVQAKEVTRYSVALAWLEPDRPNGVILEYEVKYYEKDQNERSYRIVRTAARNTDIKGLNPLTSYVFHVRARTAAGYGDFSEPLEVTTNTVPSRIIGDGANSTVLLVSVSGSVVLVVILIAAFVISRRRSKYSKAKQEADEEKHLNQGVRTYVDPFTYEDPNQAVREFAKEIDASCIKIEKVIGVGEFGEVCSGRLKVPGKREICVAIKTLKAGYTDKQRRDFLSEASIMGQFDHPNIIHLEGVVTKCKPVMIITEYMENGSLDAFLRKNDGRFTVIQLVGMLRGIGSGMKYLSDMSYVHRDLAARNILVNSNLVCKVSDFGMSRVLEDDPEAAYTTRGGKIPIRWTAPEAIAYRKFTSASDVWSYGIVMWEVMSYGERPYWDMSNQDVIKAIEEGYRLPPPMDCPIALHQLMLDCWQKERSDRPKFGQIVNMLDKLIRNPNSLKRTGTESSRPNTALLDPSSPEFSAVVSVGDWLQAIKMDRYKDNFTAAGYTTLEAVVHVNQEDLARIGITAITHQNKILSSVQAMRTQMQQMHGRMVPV
# Protocol: as §1
# HER3 = target: T7, HER3 (Homo sapiens, UniProt P21860); test: PamStation PTK kinomic profiling; type: cell-based; settings: change from DMSO control
# T7 construct: cell lysates were prepared; endogenous in cells; host or cells: SW480 and RKO
# Protocol: as §1
# EphA1 = target: T8, EphA1 (Homo sapiens, UniProt P21709); test: PamStation PTK kinomic profiling; type: cell-based; settings: change from DMSO control
# T8 construct: cell lysates were prepared; endogenous in cells; host or cells: SW480 and RKO
# Protocol: as §1
# EphA8 = target: T9, EphA8 (Homo sapiens, UniProt P29322); test: PamStation PTK kinomic profiling; type: cell-based; settings: change from DMSO control
# T9 construct: cell lysates were prepared; endogenous in cells; host or cells: SW480 and RKO
# Protocol: as §1
# EphA2 = target: T10, EphA2 (Homo sapiens, UniProt P29317); test: PamStation PTK kinomic profiling; type: cell-based; settings: change from DMSO control
# T10 construct: cell lysates were prepared; endogenous in cells; host or cells: SW480 and RKO
# Protocol: as §1
# FLT4 = target: T11, FLT4 (Homo sapiens, UniProt P35916); test: PamStation PTK kinomic profiling; type: cell-based; settings: change from DMSO control
# T11 construct: cell lysates were prepared; endogenous in cells; host or cells: SW480 and RKO
# T11 sequence (P35916 25-1363): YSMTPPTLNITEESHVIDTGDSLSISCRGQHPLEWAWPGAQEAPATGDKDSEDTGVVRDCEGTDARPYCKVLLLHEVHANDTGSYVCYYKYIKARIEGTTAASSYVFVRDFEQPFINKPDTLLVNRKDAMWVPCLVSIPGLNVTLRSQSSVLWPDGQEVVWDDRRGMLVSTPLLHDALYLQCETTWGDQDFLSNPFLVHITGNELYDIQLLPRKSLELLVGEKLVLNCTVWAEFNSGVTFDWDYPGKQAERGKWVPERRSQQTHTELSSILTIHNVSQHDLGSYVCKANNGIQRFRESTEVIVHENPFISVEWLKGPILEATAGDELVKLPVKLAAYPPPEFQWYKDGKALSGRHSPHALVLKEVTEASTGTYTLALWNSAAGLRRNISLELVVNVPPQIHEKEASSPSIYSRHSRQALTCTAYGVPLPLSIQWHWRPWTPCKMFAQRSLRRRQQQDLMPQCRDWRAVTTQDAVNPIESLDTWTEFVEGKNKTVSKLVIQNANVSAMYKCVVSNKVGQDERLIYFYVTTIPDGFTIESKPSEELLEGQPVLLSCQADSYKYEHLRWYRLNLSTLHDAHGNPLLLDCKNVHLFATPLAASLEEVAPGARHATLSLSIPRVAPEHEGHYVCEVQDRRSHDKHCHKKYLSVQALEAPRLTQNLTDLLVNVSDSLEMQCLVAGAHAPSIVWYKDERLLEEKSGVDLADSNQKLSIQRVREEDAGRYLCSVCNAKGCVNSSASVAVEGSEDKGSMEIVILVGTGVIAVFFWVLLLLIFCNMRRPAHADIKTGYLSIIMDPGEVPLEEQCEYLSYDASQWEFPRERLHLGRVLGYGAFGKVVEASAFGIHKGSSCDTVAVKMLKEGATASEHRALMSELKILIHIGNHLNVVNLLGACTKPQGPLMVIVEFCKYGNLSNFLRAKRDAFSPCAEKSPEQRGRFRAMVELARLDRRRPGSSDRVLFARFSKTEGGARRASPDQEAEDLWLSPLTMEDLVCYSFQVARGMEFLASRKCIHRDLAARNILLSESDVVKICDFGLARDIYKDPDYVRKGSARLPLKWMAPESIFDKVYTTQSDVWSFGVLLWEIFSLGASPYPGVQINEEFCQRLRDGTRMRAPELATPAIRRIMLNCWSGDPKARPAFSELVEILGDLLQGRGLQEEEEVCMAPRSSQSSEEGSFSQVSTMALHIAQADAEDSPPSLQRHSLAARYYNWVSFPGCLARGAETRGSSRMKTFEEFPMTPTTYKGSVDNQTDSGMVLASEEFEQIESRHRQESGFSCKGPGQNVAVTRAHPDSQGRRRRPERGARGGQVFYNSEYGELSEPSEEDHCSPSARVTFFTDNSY
# Protocol: as §1
# Src = target: T12, Src (Homo sapiens, UniProt P12931); test: PamStation PTK kinomic profiling; type: cell-based; settings: change from DMSO control
# T12 construct: cell lysates were prepared; endogenous in cells; host or cells: SW480 and RKO
# Protocol: as §1
# FLT3 = target: T13, FLT3 (Homo sapiens, UniProt P36888); test: PamStation PTK kinomic profiling; type: cell-based; settings: change from DMSO control
# T13 construct: we conducted kinome analysis on lysates of SW480 and RKO cells; endogenous in cells; host or cells: SW480 and RKO cells
# Protocol: as §1
# IGF1R = target: T14, IGF1R (Homo sapiens, UniProt P08069); test: PamStation PTK kinomic profiling; type: cell-based; settings: change from DMSO control
# T14 construct: cell lysates were prepared; endogenous in cells; host or cells: SW480 and RKO
# Protocol: as §1
# EphA5 = target: T15, EphA5 (Homo sapiens, UniProt P54756); test: PamStation PTK kinomic profiling; type: cell-based; settings: change from DMSO control
# T15 construct: cell lysates were prepared; endogenous in cells; host or cells: SW480 and RKO
# Protocol: as §1
# FGFR2 = target: T16, FGFR2 (Homo sapiens, UniProt P21802); test: PamStation PTK kinomic profiling; type: cell-based; settings: change from DMSO control
# T16 construct: cell lysates were prepared; endogenous in cells; host or cells: SW480 and RKO
# T16 sequence (P21802 22-821): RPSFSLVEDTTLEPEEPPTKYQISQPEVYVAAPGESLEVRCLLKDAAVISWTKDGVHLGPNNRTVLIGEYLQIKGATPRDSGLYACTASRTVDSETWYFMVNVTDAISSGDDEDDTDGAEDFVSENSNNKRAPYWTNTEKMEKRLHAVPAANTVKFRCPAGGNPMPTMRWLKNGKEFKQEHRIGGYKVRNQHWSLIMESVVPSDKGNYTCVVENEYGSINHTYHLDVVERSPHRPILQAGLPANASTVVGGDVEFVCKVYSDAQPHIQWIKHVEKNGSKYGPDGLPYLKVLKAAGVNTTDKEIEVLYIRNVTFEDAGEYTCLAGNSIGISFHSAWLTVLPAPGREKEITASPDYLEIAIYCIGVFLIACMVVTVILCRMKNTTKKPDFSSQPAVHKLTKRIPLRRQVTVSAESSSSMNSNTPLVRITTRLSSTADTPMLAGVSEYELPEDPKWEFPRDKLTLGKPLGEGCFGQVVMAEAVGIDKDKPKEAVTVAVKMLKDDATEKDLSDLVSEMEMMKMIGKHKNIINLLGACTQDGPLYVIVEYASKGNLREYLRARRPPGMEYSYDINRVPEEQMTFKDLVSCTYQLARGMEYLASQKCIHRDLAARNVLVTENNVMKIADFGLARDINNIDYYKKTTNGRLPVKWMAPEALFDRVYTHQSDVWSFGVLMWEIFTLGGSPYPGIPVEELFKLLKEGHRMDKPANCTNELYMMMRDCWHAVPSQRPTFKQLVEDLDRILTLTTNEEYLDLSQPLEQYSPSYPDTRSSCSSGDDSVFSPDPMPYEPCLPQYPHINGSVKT
# Protocol: as §1
# FAK1 = target: T17, FAK1 (Homo sapiens, UniProt Q05397); test: PamStation PTK kinomic profiling; type: cell-based; settings: change from DMSO control
# T17 construct: cell lysates were prepared; endogenous in cells; host or cells: SW480 and RKO
# Protocol: as §1
# [1] = Pharmacokinetics in plasma; type: in vivo; settings: given in combination with JAK/HDACi, C57BL/6 mice plasma, 1, 7, 21, 48 h, i.p.
# Protocol: Blood samples were collected from C57BL/6 mice treated with regorafenib and JAK-HDACi at 1, 7, 21, or 48 h after treatment, and plasma samples were assayed. The quantifications of regorafenib and JAK-HDACi in plasma were conducted using a Shimadzu LC-20AD LC (Shimadzu, OR) and an API5000 MS (Sciex, MA). For sample preparation, a one-step protein precipitation with acetonitrile was used. Plasma (10 µL) was added into 250 µL of acetonitrile. Chromatographic separation was performed using an ACE Excel 3 C18 column. The mobile phase was (A) 0.1% formic acid in water and (B) 0.1% formic acid in acetonitrile utilizing a gradient from 20% to 75%. The injection volume was 10 µL. The run time was 5 min, and the retention time was 2.4 min. Standard curves for regorafenib and JAK-HDACi in plasma were prepared in the ranges of 5–15,000 ng/ml.
smiles,measurement,setting,value
CNC(=O)c1cc(Oc2ccc(NC(=O)Nc3ccc(Cl)c(C(F)(F)F)c3)c(F)c2)ccn1 [regorafenib],"Mean Kinase Statistic, FGFR4","FGFR4; RKO, 45 min",0.215
same,"Mean Kinase Statistic, FGFR4","FGFR4; SW480, 45 min",-0.166
same,"Mean Kinase Statistic, Fgr","Fgr; RKO, 45 min",-0.272
same,"Mean Kinase Statistic, Fgr","Fgr; SW480, 45 min",-0.185
same,"Mean Kinase Statistic, PDGFR[beta]","PDGFR[beta]; RKO, 45 min",0.140
same,"Mean Kinase Statistic, PDGFR[beta]","PDGFR[beta]; SW480, 45 min",-0.203
same,"Mean Kinase Statistic, FLT1","FLT1; RKO, 45 min",0.207
same,"Mean Kinase Statistic, FLT1","FLT1; SW480, 45 min",-0.166
same,"Mean Kinase Statistic, JAK1~b","JAK1~b; RKO, 45 min",0.393
same,"Mean Kinase Statistic, JAK1~b","JAK1~b; SW480, 45 min",-0.185
same,"Mean Kinase Statistic, EphA4","EphA4; RKO, 45 min",-0.122
same,"Mean Kinase Statistic, EphA4","EphA4; SW480, 45 min",-0.155
same,"Mean Kinase Statistic, HER3","HER3; RKO, 45 min",0.047
same,"Mean Kinase Statistic, HER3","HER3; SW480, 45 min",-0.158
same,"Mean Kinase Statistic, EphA1","EphA1; RKO, 45 min",0.168
same,"Mean Kinase Statistic, EphA1","EphA1; SW480, 45 min",-0.125
same,"Mean Kinase Statistic, EphA8","EphA8; RKO, 45 min",-0.006
same,"Mean Kinase Statistic, EphA8","EphA8; SW480, 45 min",-0.155
same,"Mean Kinase Statistic, EphA2","EphA2; RKO, 45 min",0.225
same,"Mean Kinase Statistic, EphA2","EphA2; SW480, 45 min",-0.097
same,"Mean Kinase Statistic, FLT4","FLT4; RKO, 45 min",0.133
same,"Mean Kinase Statistic, FLT4","FLT4; SW480, 45 min",-0.234
same,"Mean Kinase Statistic, Src","Src; RKO, 45 min",-0.068
same,"Mean Kinase Statistic, Src","Src; SW480, 45 min",-0.128
same,"Mean Kinase Statistic, FLT3","FLT3; RKO, 45 min",0.133
same,"Mean Kinase Statistic, FLT3","FLT3; SW480, 45 min",-0.243
same,"Mean Kinase Statistic, IGF1R","IGF1R; RKO, 45 min",-0.129
same,"Mean Kinase Statistic, IGF1R","IGF1R; SW480, 45 min",-0.222
same,"Mean Kinase Statistic, EphA5","EphA5; RKO, 45 min",-0.050
same,"Mean Kinase Statistic, EphA5","EphA5; SW480, 45 min",-0.324
same,"Mean Kinase Statistic, FGFR2","FGFR2; RKO, 45 min",0.180
same,"Mean Kinase Statistic, FGFR2","FGFR2; SW480, 45 min",-0.279
same,"Mean Kinase Statistic, FAK1","FAK1; RKO, 45 min",0.052
same,"Mean Kinase Statistic, FAK1","FAK1; SW480, 45 min",-0.131
same,bioavailability of regorafenib,[1],increased
